Values after ≈ are worked out from the molar mass of the structure shown. Like-named read-outs stand apart in the source and are kept apart here.
What was measured:
Solubility in solvents = type: physicochemical
ICR mice = assay: Toxicity after intraperitoneal administration to ICR mice; type: in vivo; settings: 100 mg/kg
[1] = system: Candida albicans TIMM0136; assay: Antimicrobial spectrum, liquid medium dilution method; type: cell-based
Method: (§1) The TKR459 obtained was used to determine antimicrobial spectra against various microorganisms. The minimal inhibitory concentration (μg/ml) was measured by the liquid medium dilution method as the minimal concentration causing a substantially complete inhibition of micobial growth. The sub-minimal inhibitory concentration (μg/ml) was determined as the minimal concentration causing a partial inhibition of micobial growth and shown in the parentheses of Table 2. In the table, YNBG stands for a medium comprising 0.67% of yeast nitrogen base (manufactured by Difco) and 1.0% of glucose.

Candida kefyr TIMM0301 = assay: as above; type: cell-based; settings: for MIC: Kluyveromyces marxianus, Candida kefyr TIMM0301, YNBG medium
Method: as §1

[2] = system: Cryptococcus neoformans TIMM0354; assay: as above; type: cell-based
Method: as §1

With `CC(O)(CCCCCCCCCCCCCC1OC(O)C(N)C(O)C1O)CCC(=O)O` (stereo not drawn) [TKR459] the Solubility in chloroform (Solubility in solvents; chloroform) was “sparingly soluble”, the Solubility in hexane (Solubility in solvents; hexane) was “sparingly soluble” and the Solubility in methanol (Solubility in solvents; methanol) was “soluble”. For the same molecule, the Solubility in water (Solubility in solvents; water) was “soluble”, the Toxic signs (ICR mice) was “no toxic signs” and the MIC ([1]; Candida albicans TIMM0136, YNBG medium, substantially complete inhibition of growth, read-out: Minimal inhibitory concentration) was 0.78 µg/mL (≈ 1.74 µM). The Antifungal activity ([1]; Candida albicans, summary of Table 2) was “active”, the Antifungal activity (Candida kefyr TIMM0301; Candida kefyr, summary of Table 2) was “active” and the MIC (Candida kefyr TIMM0301; minimal concentration causing partial inhibition of growth, read-out: Sub-minimal inhibitory concentration (in parentheses)) was 0.39 µg/mL (≈ 0.871 µM). The MIC (Candida kefyr TIMM0301; substantially complete inhibition of growth, read-out: Minimal inhibitory concentration) was 0.78 µg/mL (≈ 1.74 µM), the MIC ([2]; Cryptococcus neoformans TIMM0354, YNBG medium, substantially complete inhibition of growth, read-out: Minimal inhibitory concentration) was 3.13 µg/mL (≈ 6.99 µM) and the Antifungal activity ([2]; Cryptococcus neoformans, summary of Table 2) was “active”.

Source: patent publication US6337410B2, “Antibiotic TKR459, production method, and microorganism” (Takara Shuzo Co., Ltd., priority 1996, dated 2002)
